Publication PMC12298648, “An Evaluation of the Cytotoxicity and Safety Profile of Usnic Acid for a Broad Panel of Human Cancers and Normal Cells with Respect to Its Enantiospecificity” (Molecules, 2025)
Values after ≈ are worked out from the molar mass of the structure shown. Like-named read-outs stand apart in the source and are kept apart here.

Columns and labels:
HCT116 = experiment: MTT viability assay, HCT116 colon cancer cells; type: cell-based, human; details: for Cell viability: HCT116, 24 h; for IC50: Homo sapiens, HCT-116
Source text: (§1) Cell lines of different origins were used in the study and grouped as follows: prostate panel (human prostate carcinomas: DU145, derived from metastatic site: brain; grade IV PC3, derived from metastatic site: bone; LNCaP, derived from the metastatic site: lymph node; prostate epithelial, PNT2), colon panel (colorectal adenocarcinomas: HT29, originating from a primary tumor; Duke’s type C DLD-1, with the potential to lymph node metastasis; highly metastatic HCT116; colon epithelial cells CCD 841 CoN), thyroid panel (follicular thyroid carcinoma FTC133, anaplastic thyroid carcinoma 8505C, papillary thyroid carcinoma TPC-1, normal thyroid follicular epithelial Nthy-ori 3–1), breast panel (ER-positive breast adenocarcinoma MCF7, ER-negative breast adenocarcinoma MDA-MB-231, breast epithelial MCF10A), brain panel (neuroblastoma SH-SY5Y, glioblastoma U-87 MG, murine astrocytes C8D1A). All cell lines were purchased from Merck (Darmstadt, Germany).
(§2) Cells were grown under standard conditions (37 °C, 5% CO2) and culture media (DMEM/F12 for PNT2, PC3, FTC133, 8505 C, MDA-MB-231, TPC-1; DMEM Low Glucose for DU145; DMEM High Glucose for HCT116, DLD-1, SH-SY5Y, U87MG, C8D1A; MEM with NEAA for MCF7; MEM for CCD 841 CoN; McCoy’s for HT29; RPMI1640 with sodium pyruvate for LNCaP; DMEM/F12 with 20 ng/mL epidermal growth factor (EGF), 10 μg/mL insulin, 0.5 μg/mL hydrocortisone, 100 ng/mL cholera toxin) for MCF10A), supplemented with 10% fetal bovine serum (FBS) or 5% donor horse serum for MCF10A, and 1% antibiotics solution (10,000 U penicillin and 10 mg streptomycin/mL). The tested substances were prepared as 10 mg/mL stock solutions in DMSO and further diluted in the culture media to the working concentrations. Cells were treated with UA enantiomers at the concentration range of 0–50 µg/mL. The influence of DMSO on cell viability was also examined, with the final concentration […], and no toxic effect was noted.
(§3) The cells were seeded onto 96-well plates at a density of 1.5 × 10^4 cells/well. After 24 h UA enantiomers were added. Cell viability was determined after 24, 48, and 72 h by the MTT assay, as described previously. Doxorubicin was used as a reference cytostatic drug. All analyses were performed in triplicate; cell viability was expressed as % of control, untreated cells (mean ± SD), and IC50 values (concentration at which cell viability is inhibited by 50%), if possible.

MDA-MB-231 = experiment: MTT viability assay, MDA-MB-231 breast cancer cells; type: cell-based, human; details: for IC50: Homo sapiens; for Cell viability: MDA-MB-231, 24 h
Source text: as §1, §2, §3
(§4) The selectivity index (SI) was calculated, if possible, by dividing the IC50 value obtained for non-cancerous cells line by the IC50 values obtained for appropriate cancer cell line, as described previously. […] The values above 3 indicate good selectivity.

DU145 = experiment: MTT viability assay, DU145 prostate cancer cells; type: cell-based, human; details: for Cell viability: DU145, 24 h; for IC50: Homo sapiens, DU-145
Source text: as §1, §2, §3, §4

glioblastoma U251 cells = system: glioblastoma U251 cells; design: method as in PMID 18558490; details: U251, 72 h, cited from earlier work
HepG2 cells = system: HepG2 cells; design: method as in PMID 40368021; details: cited from earlier work
DLD-1 = experiment: MTT viability assay, DLD-1 colon cancer cells; type: cell-based, human; details: for Cell viability: DLD-1, 24 h; for IC50: Homo sapiens
Source text: as §1, §2, §3

MCF7 = experiment: MTT viability assay, MCF7 breast cancer cells; type: cell-based, human; details: for IC50: Homo sapiens; for Cell viability: MCF7, 24 h
Source text: as §1, §2, §3, §4

MCF7 cells = system: MCF7 cells; design: method as in not printed ('another' study); details: MCF7, 72 h, ref not given ('another' study), cited from earlier work
PNT2 = experiment: MTT viability assay, normal prostate epithelial cells; type: cell-based, human; details: for IC50: Homo sapiens; for Cell viability: PNT2, 24 h
Source text: as §1, §2, §3

Nthy ori 3-1 = experiment: MTT viability assay, normal thyroid follicular epithelial cells; type: cell-based, human; details: for IC50: Homo sapiens; for Cell viability: Nthy ori 3-1, 24 h
Source text: as §1, §2, §3

[1] = recalculated from µM by the authors

## CC(=O)C1=C(O)C=C2Oc3c(C(C)=O)c(O)c(C)c(O)c3[C@]2(C)C1=O [UA(−), (−)-usnic acid]
HCT116; 2.5 µg/mL
  Cell viability: 112.65 % of control
HCT116; 5 µg/mL
  Cell viability: 108.16 % of control
HCT116; 10 µg/mL
  Cell viability: 96.26 % of control
HCT116; 20 µg/mL
  Cell viability: 84.97 % of control
HCT116; 30 µg/mL
  Cell viability: 72.86 % of control
HCT116; 40 µg/mL
  Cell viability: 71.90 % of control
HCT116; 50 µg/mL
  Cell viability: 73.33 % of control
HCT116; HCT116, 48 h
  IC50: 26.2 µg/mL (≈ 76.1 µM)
HCT116; HCT116, 72 h
  IC50: 10.7 µg/mL (≈ 31.1 µM)
MDA-MB-231; MDA-MB-231, 48 h
  IC50: 41.4 µg/mL (≈ 120 µM)
MDA-MB-231; MDA-MB-231, 72 h
  IC50: 20.2 µg/mL (≈ 58.7 µM)
MDA-MB-231; 2.5 µg/mL
  Cell viability: 96.79 % of control
MDA-MB-231; 5 µg/mL
  Cell viability: 92.06 % of control
MDA-MB-231; 10 µg/mL
  Cell viability: 88.24 % of control
MDA-MB-231; 20 µg/mL
  Cell viability: 85.58 % of control
MDA-MB-231; 30 µg/mL
  Cell viability: 74.48 % of control
MDA-MB-231; 40 µg/mL
  Cell viability: 68.12 % of control
MDA-MB-231; 50 µg/mL
  Cell viability: 70.55 % of control
DU145; 2.5 µg/mL
  Cell viability: 99.84 % of control
DU145; 5 µg/mL
  Cell viability: 89.03 % of control
DU145; 10 µg/mL
  Cell viability: 82.15 % of control
DU145; 20 µg/mL
  Cell viability: 77.63 % of control
DU145; 30 µg/mL
  Cell viability: 68.28 % of control
DU145; 40 µg/mL
  Cell viability: 64.95 % of control
DU145; 50 µg/mL
  Cell viability: 65.86 % of control
DU145; DU145, 48 h
  IC50: 34.8 µg/mL (≈ 101 µM)
DU145; DU145, 72 h
  IC50: 18.6 µg/mL (≈ 54 µM)
DU145; IC50 PNT2 / IC50 DU145, 48 h
  selectivity index (SI): 1.02
DU145; IC50 PNT2 / IC50 DU145, 72 h
  selectivity index (SI): 1.49
Glioblastoma U251 cells; [1]
  IC50: 6.8 µg/mL
Glioblastoma U251 cells; read-out: IC50
  IC50: 19.7 µM
HepG2 cells; HepG2, 48 h
  IC50 (hepatotoxicity): 16.0 µg/mL (≈ 46.5 µM)
HepG2 cells; HepG2, 72 h
  IC50 (hepatotoxicity): 18.3 µg/mL (≈ 53.1 µM)
DLD-1; 2.5 µg/mL
  Cell viability: 100.75 % of control
DLD-1; 5 µg/mL
  Cell viability: 97.99 % of control
DLD-1; 10 µg/mL
  Cell viability: 92.05 % of control
DLD-1; 20 µg/mL
  Cell viability: 81.25 % of control
DLD-1; 30 µg/mL
  Cell viability: 78.35 % of control
DLD-1; 40 µg/mL
  Cell viability: 77.75 % of control
DLD-1; 50 µg/mL
  Cell viability: 77.98 % of control
DLD-1; DLD-1, 48 h
  IC50: 44.3 µg/mL (≈ 129 µM)
DLD-1; DLD-1, 72 h
  IC50: 15.4 µg/mL (≈ 44.7 µM)
MCF7; MCF7, 48 h
  IC50: > 50 µg/mL
MCF7; MCF7, 72 h
  IC50: 33.4 µg/mL (≈ 97 µM)
MCF7; 2.5 µg/mL
  Cell viability: 124.74 % of control
MCF7; 5 µg/mL
  Cell viability: 113.59 % of control
MCF7; 10 µg/mL
  Cell viability: 110.03 % of control
MCF7; 20 µg/mL
  Cell viability: 106.15 % of control
MCF7; 30 µg/mL
  Cell viability: 109.10 % of control
MCF7; 40 µg/mL
  Cell viability: 106.28 % of control
MCF7; 50 µg/mL
  Cell viability: 91.15 % of control
MCF7 cells; [1]
  IC50: 17.8 µg/mL
MCF7 cells; read-out: IC50
  IC50: 51.7 µM
PNT2; PNT2, 48 h
  IC50: 35.4 µg/mL (≈ 103 µM)
PNT2; PNT2, 72 h
  IC50: 27.8 µg/mL (≈ 80.7 µM)
PNT2; 2.5 µg/mL
  Cell viability: 103.40 % of control
PNT2; 5 µg/mL
  Cell viability: 99.24 % of control
PNT2; 10 µg/mL
  Cell viability: 91.32 % of control
PNT2; 20 µg/mL
  Cell viability: 83.13 % of control
PNT2; 30 µg/mL
  Cell viability: 74.58 % of control
PNT2; 40 µg/mL
  Cell viability: 68.75 % of control
PNT2; 50 µg/mL
  Cell viability: 54.38 % of control
Nthy ori 3-1; Nthy-ori 3-1, 48 h
  IC50: > 50 µg/mL
Nthy ori 3-1; Nthy-ori 3-1, 72 h
  IC50: 29.3 µg/mL (≈ 85.1 µM)
Nthy ori 3-1; 2.5 µg/mL
  Cell viability: 97.23 % of control
Nthy ori 3-1; 5 µg/mL
  Cell viability: 99.36 % of control
Nthy ori 3-1; 10 µg/mL
  Cell viability: 94.52 % of control
Nthy ori 3-1; 20 µg/mL
  Cell viability: 93.76 % of control
Nthy ori 3-1; 30 µg/mL
  Cell viability: 95.25 % of control
Nthy ori 3-1; 40 µg/mL
  Cell viability: 96.10 % of control
Nthy ori 3-1; 50 µg/mL
  Cell viability: 98.58 % of control
